# Where two headings read alike, the source gives them in different places.
# Key:
# [1] = in vivo; cited from earlier work
# [2] = test system: patients with heart failure and a left ventricular ejection fraction ≥40%; format: in vivo
structure (smiles),measurement,setting,value
"CCOc1ncc(C)c2c1[C@H](c1ccc(C#N)cc1OC)C(C(N)=O)=C(C)N2 [finerenone, (4S)-4-(4-cyano-2-methoxyphenyl)-5-ethoxy-2,8-dimethyl-1,4-dihydro-1,6-naphthyridine-3-carboxamide]",active metabolites,[1],no active metabolites
same,Total worsening HF events: Event rate per 100 PY,[2]; bilirubin Tertile 2 0.5-0.6 mg/dL,9.7 per 100 PY
same,Total worsening HF events: Event rate per 100 PY,[2]; bilirubin Tertile 3 ≥0.7 mg/dL,12.6 per 100 PY
same,"primary events (total worsening heart failure events and cardiovascular death), number of events","[2]; finerenone group, median 32 months","1,083"
